One test has as its target T1, Adenosine receptor A3 (Homo sapiens, UniProt P0DMS8).
T1 sequence (P0DMS8 whole entry): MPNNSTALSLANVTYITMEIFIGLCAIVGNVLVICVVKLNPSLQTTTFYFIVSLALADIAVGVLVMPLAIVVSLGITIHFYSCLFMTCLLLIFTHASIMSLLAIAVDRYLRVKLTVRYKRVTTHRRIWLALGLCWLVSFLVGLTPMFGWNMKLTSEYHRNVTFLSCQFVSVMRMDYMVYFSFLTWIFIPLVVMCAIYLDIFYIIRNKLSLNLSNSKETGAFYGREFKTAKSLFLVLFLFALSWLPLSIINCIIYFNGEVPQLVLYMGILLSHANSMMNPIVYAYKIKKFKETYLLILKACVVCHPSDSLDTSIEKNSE

Test [1] concerns the target T2, Alpha-1A adrenergic receptor (Homo sapiens, UniProt P35348).
T2 sequence (P35348 whole entry): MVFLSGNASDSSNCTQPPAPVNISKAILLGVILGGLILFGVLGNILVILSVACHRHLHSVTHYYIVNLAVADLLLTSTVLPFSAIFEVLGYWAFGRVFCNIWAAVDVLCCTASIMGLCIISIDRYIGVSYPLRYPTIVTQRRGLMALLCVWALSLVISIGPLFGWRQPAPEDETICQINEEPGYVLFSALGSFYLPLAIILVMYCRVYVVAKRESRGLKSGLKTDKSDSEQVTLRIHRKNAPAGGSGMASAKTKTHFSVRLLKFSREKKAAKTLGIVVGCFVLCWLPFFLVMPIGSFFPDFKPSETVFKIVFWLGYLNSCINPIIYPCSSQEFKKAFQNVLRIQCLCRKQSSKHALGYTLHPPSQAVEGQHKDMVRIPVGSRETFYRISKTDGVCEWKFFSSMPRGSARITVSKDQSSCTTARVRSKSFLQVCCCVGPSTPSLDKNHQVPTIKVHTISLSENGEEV
Format: functional, cell-based.

In test [2] the target is T3, Alpha-2A adrenergic receptor (Homo sapiens, UniProt P08913).
T3 sequence (P08913 whole entry): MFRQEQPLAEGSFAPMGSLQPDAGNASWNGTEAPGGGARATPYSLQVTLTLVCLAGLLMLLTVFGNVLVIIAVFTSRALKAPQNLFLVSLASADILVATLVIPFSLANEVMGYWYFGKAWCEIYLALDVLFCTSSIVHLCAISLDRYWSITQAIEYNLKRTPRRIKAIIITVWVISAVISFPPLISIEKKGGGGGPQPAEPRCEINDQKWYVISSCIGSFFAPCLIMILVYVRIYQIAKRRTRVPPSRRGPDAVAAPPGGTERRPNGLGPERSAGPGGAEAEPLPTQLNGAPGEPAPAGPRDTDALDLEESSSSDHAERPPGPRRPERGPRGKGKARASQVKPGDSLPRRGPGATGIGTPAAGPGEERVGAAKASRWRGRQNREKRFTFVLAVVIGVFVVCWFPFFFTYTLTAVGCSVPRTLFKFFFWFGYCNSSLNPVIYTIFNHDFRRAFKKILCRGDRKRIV

The next test addresses D(1A) dopamine receptor (Homo sapiens, UniProt P21728).
The target of test [3] is T4, 5-hydroxytryptamine receptor 1A (Homo sapiens, UniProt P08908).
T4 sequence (P08908 whole entry): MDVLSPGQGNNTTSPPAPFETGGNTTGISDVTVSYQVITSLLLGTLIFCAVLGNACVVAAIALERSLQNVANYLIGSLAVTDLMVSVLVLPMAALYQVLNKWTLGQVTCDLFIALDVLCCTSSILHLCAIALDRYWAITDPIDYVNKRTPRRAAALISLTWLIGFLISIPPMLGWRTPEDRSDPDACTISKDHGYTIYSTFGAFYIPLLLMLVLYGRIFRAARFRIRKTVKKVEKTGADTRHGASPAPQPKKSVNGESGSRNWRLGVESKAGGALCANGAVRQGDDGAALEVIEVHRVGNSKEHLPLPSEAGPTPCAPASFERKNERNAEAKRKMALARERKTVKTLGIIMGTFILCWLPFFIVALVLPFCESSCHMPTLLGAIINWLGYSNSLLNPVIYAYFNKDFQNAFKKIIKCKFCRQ

Test [4] concerns the target T5, Progesterone receptor (Homo sapiens, UniProt P06401).
T5 sequence (P06401 whole entry): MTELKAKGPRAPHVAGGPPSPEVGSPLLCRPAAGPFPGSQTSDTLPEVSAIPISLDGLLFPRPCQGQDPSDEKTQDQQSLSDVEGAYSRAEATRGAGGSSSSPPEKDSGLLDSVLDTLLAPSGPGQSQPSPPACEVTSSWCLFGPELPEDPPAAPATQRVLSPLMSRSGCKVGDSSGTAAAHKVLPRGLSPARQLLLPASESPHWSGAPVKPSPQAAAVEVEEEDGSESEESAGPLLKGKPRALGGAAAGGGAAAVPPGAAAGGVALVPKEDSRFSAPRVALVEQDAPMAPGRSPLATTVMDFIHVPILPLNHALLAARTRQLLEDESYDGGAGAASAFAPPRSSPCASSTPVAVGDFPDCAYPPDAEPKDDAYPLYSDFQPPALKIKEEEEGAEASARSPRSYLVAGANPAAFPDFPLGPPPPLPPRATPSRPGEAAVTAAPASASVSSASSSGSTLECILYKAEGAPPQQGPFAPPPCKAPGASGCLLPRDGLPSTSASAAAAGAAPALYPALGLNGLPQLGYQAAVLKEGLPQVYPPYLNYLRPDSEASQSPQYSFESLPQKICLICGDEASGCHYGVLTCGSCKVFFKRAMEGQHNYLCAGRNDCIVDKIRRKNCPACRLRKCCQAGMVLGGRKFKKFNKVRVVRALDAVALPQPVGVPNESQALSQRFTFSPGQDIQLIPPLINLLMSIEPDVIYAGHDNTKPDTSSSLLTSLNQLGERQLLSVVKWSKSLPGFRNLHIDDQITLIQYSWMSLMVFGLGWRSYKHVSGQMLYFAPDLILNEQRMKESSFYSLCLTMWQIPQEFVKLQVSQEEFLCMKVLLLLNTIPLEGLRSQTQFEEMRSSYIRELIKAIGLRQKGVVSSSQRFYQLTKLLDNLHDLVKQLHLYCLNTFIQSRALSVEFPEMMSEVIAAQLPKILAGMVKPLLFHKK

The target of test [5] is Beta-1 adrenergic receptor (Homo sapiens, UniProt P08588). In kind it is functional.
Chain of Beta-1 adrenergic receptor (P08588 whole entry): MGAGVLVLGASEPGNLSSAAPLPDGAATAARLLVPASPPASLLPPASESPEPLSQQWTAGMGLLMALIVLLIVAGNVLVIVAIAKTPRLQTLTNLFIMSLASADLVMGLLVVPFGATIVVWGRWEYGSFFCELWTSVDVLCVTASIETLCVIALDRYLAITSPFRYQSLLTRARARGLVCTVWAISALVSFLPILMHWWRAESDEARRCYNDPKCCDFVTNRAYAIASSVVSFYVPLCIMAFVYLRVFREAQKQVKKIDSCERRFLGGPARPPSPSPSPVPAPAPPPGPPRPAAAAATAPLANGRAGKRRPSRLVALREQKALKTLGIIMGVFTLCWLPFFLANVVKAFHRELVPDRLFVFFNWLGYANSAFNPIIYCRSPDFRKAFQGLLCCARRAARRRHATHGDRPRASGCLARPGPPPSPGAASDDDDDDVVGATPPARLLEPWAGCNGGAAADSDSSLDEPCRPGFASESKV
Test [6] has as its target Beta-2 adrenergic receptor (Homo sapiens, UniProt P07550).
Test [7] deals with T5, Progesterone receptor. In kind it is functional.

Molecules are shown by their SMILES.
Further: assay procedure not described here.

Chain of Beta-2 adrenergic receptor (P07550 whole entry): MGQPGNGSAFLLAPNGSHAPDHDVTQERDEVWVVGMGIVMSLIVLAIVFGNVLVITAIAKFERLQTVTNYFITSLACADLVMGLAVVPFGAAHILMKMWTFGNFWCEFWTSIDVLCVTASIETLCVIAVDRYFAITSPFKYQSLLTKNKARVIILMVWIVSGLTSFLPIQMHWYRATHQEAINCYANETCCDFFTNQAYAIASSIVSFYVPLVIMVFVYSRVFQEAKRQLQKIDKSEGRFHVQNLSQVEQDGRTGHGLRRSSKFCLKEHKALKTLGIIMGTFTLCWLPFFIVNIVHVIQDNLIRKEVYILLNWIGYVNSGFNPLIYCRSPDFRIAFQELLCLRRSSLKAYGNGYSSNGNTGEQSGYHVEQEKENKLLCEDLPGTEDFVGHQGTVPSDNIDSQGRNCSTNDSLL
Chain of D(1A) dopamine receptor (P21728 whole entry): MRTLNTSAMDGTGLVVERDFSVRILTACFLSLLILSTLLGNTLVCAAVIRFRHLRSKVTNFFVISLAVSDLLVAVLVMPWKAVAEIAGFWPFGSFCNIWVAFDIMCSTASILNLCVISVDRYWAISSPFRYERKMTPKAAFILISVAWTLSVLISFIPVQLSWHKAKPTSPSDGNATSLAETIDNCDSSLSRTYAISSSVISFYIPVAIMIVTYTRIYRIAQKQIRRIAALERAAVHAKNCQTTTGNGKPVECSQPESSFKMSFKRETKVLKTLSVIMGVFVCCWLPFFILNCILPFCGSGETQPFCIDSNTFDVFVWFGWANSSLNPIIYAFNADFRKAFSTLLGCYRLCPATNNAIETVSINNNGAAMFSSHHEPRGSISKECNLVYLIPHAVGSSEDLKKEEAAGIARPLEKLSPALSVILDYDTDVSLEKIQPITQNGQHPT

In general, AC50 refers to the concentration giving half of the maximal activity seen. For `CC(C)N(CCNC(=O)CN1CCCC1=O)C(C)C`, the AC50 (on Adenosine receptor A3; in test [1]; in test [2]; on D(1A) dopamine receptor; in test [3]; on Progesterone receptor [4]) was more than 30 µM each time.

For the molecule `Cc1cc(N)c2ccccc2[n+]1CCCCCCCCCC[n+]1c(C)cc(N)c2ccccc21`, the AC50 was 8.73 µM on Adenosine receptor A3; 23.9 µM in test [1]; 0.464 µM in test [2]; 1.04 µM at D(1A) dopamine receptor; 2.53 µM in test [3]; 16 µM on Progesterone receptor [4].

Turning to `CCOC(=O)[C@H](CCc1ccccc1)N[C@@H](C)C(=O)N(CC(=O)O)C1Cc2ccccc2C1`, the AC50 (at Adenosine receptor A3; in test [1]; in test [2]; at D(1A) dopamine receptor; in [3]; on Progesterone receptor [4]) was more than 30 µM in each case.

For the molecule `C=CCSCC1Nc2cc(Cl)c(S(N)(=O)=O)cc2S(=O)(=O)N1` (stereo unspecified) [ALTHIAZIDE], the AC50 (on Adenosine receptor A3; in test [1]; in [2]; at D(1A) dopamine receptor; in [3]; on Progesterone receptor [4]) was more than 30 µM in each case.

Turning to `CCN(CCCc1ccccc1)CCCc1ccccc1` [ALVERINE], the AC50 on Adenosine receptor A3 is more than 30 µM; in test [1], more than 30 µM; in test [2], 1.96 µM; on D(1A) dopamine receptor it was 3.72 µM; in test [3] it was 0.029 µM; on Progesterone receptor [4] it was more than 30 µM.

With `COc1cc(N2CCC(N3CCN(C)CC3)CC2)ccc1Nc1ncc(Cl)c(Nc2ccccc2P(C)(C)=O)n1` [BRIGATINIB], the AC50 (on Adenosine receptor A3; in [1]; in test [2]; on D(1A) dopamine receptor; in test [3]; at Progesterone receptor [4]) was more than 30 µM each time.

Regarding `CN(C)CCOC(c1ccccc1)c1ccc(Br)cc1` (stereo unspecified) [BROMODIPHENHYDRAMINE], the AC50 at Adenosine receptor A3 was more than 30 µM; in test [1] it was more than 30 µM; in test [2], 8.38 µM; on D(1A) dopamine receptor, 2.95 µM; in test [3] it was 22.2 µM; on Progesterone receptor [4], more than 30 µM.

Regarding `CC(=O)O[C@]1(C(C)=O)CC[C@H]2[C@@H]3C=C(Cl)C4=CC(=O)CC[C@]4(C)[C@H]3CC[C@@]21C` [CHLORMADINONE ACETATE], the AC50 is 21 µM at Adenosine receptor A3; more than 30 µM in test [1]; more than 30 µM in test [2]; more than 30 µM on D(1A) dopamine receptor; more than 30 µM in [3]; 0.003 µM on Progesterone receptor [4].

Take `NC(=O)OCC(O)COc1ccc(Cl)cc1` (stereo unspecified) [CHLORPHENESIN CARBAMATE]: the AC50 (on Adenosine receptor A3; in [1]; in test [2]; on D(1A) dopamine receptor; in test [3]; on Progesterone receptor [4]) was more than 30 µM each time.

As to `O=C(O)c1cn(C2CC2)c2cc(N3CCNCC3)c(F)cc2c1=O` [CIPROFLOXACIN], the AC50 on Progesterone receptor [4] was more than 30 µM.

In the case of `Cc1ccccc1N1CCN(CCc2nnc3n2CCCC3)CC1` [DAPIPRAZOLE], the AC50 is more than 30 µM at Adenosine receptor A3; 3.77 µM in test [2]; more than 30 µM on D(1A) dopamine receptor; 0.628 µM in [3]; more than 30 µM at Progesterone receptor [4].

Consider `CCN(CC)C(=S)S` [DITIOCARB], for which the AC50 (in [1]; in [2]; at D(1A) dopamine receptor; in test [3]; at Progesterone receptor [4]) was more than 30 µM in each case.

`C=C1CC[C@H](O)C/C1=C/C=C1\CCC[C@]2(C)[C@@H]([C@H](C)/C=C/[C@H](C)C(C)C)CC[C@@H]12` [ERGOCALCIFEROL]: the half-maximal activity concentration (AC50) (in test [2]; at D(1A) dopamine receptor; in test [3]; on Progesterone receptor [4]) was more than 30 µM throughout.

On to `Cc1cnc(C(=O)NCCc2ccc(S(=O)(=O)NC(=O)NC3CCCCC3)cc2)cn1` [GLIPIZIDE], for which the AC50 was 14 µM in [1]; more than 30 µM in [2]; more than 10 µM in test [5]; more than 10 µM in [6]; 29.9 µM in test [3]; more than 30 µM on Progesterone receptor [4].

For the molecule `CCC(=O)O[C@]1(C(=O)CCl)[C@@H](C)C[C@H]2[C@@H]3C[C@H](F)C4=CC(=O)C=C[C@]4(C)[C@@]3(F)[C@@H](O)C[C@@]21C` [HALOBETASOL PROPIONATE], the AC50 is 19.7 µM at Adenosine receptor A3; more than 30 µM in test [1]; more than 30 µM in [2]; more than 30 µM on D(1A) dopamine receptor; more than 30 µM in test [3]; 0.003 µM on Progesterone receptor [4].

Consider `Oc1ccc2c(c1)CC[C@H](c1ccccc1)[C@@H]2c1ccc(OCCN2CCCC2)cc1` [LASOFOXIFENE], for which the values for the AC50 (in test [5]; on Progesterone receptor [7]) were 10 µM and more than 10 µM, respectively.

Turning to `CC(C(=O)O)c1ccc(CC2CCCC2=O)cc1` (stereo unspecified) [LOXOPROFEN], the AC50 in test [5] and in test [6] was more than 30 µM each time.

For `CN(C)CCCNc1c2ccccc2nc2cccc([N+](=O)[O-])c12` [NITRACRINE], the AC50 (in [5]; in test [6]; at Progesterone receptor [7]) was more than 30 µM in each case.

Turning to `CC[C@@H]([C@H](C)O)n1ncn(-c2ccc(N3CCN(c4ccc(OC[C@@H]5CO[C@@](Cn6cncn6)(c6ccc(F)cc6F)C5)cc4)CC3)cc2)c1=O` [POSACONAZOLE], the concentration at half-maximal activity (AC50) (in [1]; in test [2]; on D(1A) dopamine receptor; in test [3]; on Progesterone receptor [7]; at Progesterone receptor [4]) was more than 30 µM throughout.

As for `CCCN[C@H]1CCc2nc(N)sc2C1` [PRAMIPEXOLE], the AC50 (in [5]; in test [6]; at Progesterone receptor [7]) was more than 30 µM each time.

For the molecule `Cc1cc(C(C)(C)C)cc(C)c1CC1=NCCN1` [XYLOMETAZOLINE], the AC50 was 0.0003 µM in [1], more than 30 µM in test [5], more than 30 µM in test [6] and more than 30 µM at Progesterone receptor [7].

The values are drawn from ChEMBL document CHEMBL5291721, “A preclinical secondary pharmacology resource illuminates target-adverse drug reaction associations of marketed drugs” (Nat Commun, 2023).
